Test results from patent US12661345B2, “Compositions for the treatment of hypertension” (The George Institute for Global Health, priority 2017, dated 2026).

Columns and labels:
[1] = test system: participants with migraine; experiment: Subject status / participant withdrawals by visit in the 3×3 factorial trial
[2] = test system: LDL; experiment: LDL laboratory test in the 3×3 factorial trial; assay type: in vivo, human; details: Week 12 v/s Baseline
Protocol: (§1) There was a 4 week screening period and another 4-week post study drug observational period.
(§2) Group 2 received the low-dose BP lowering combination and simvastatin (i.e., telmisartan 20 mg+amlodipine 2.5 mg+simvastatin). Group 3 received the low-dose BP lowering combination and placebo (i.e., telmisartan 20 mg+amlodipine 2.5 mg+placebo). […] Group 9 received double placebo.
Change in DBP and SBP • 2. Change in LDL Secondary Outcomes: • 1. Tolerability: • a. […] Difference between groups in participant withdrawals from treatment • 2. Safety: Percentage with any severe adverse event (SAE) • 3. Medication adherence: self-reported measures, pill counts BP Measurement:
Potassium (K+), sodium (Na+), serum creatinine and LDL were measured at screening and at the 12-week end of treatment follow-up visit.
(§3) All analyses of study outcomes were conducted according to the principle of intention-to-treat. The analyses of continuous outcomes such SBP and LDL-cholesterol at 12 weeks was performed using ANCOVA including the treatment arm and baseline values as a covariate. Additional analyses included interim measurements in a longitudinal model including treatment arm, visit, and treatment by visit interaction as well as the baseline measurement. Within-patient correlations were modelled using generalized estimating equations. A similar approach was applied to binary endpoints with log-binomial regression used in place of linear regression. There were also pre-defined subgroup analyses, baseline BP, baseline LDL, gender and age.

[3] = test system: participants with migraine; experiment: Office blood pressure in 12-week double blind randomized 3×3 factorial trial; assay type: in vivo, human
Protocol: as §1
There was a 4-week screening period and another 4-week post study drug observational period.
as §2
Office BP was measured following the recommendations of the Australian National Heart Foundation. Participants were rested in the seated position for 5 minutes, an appropriate cuff size was selected and 3 measurements of BP were recorded using an Omron HEM907 monitor or equivalent validated automated digital BP monitor. Principles of automated office BP measurements were applied whereby the patient was left alone during BP recording.
as §3

[4] = Randomization (baseline, before treatment)
[5] = Week 16 (after 4-week post study drug period)

In the case of `CCC(C)(C)C(=O)O[C@H]1C[C@@H](C)C=C2C=C[C@H](C)[C@H](CC[C@@H]3C[C@@H](O)CC(=O)O3)[C@H]21` [Simvastatin, simvastatin], the “Discontinuing the study (n/N)” value ([1]; Week 4) is reported as 0/9, the “Discontinuing the study (percent)” value ([1]; Week 4) is reported as “(0.0%)” and the “Discontinuing: Deceased (n/N)” value ([1]; Week 4) is reported as 0/0. The “Discontinuing: Deceased (percent)” value ([1]; Week 4) was “(0.0%)”, the “Discontinuing the study (n/N)” value ([1]; Week 8) was 0/9 and the “Discontinuing the study (percent)” value ([1]; Week 8) was “(0.0%)”. For the same molecule, the “Discontinuing: Deceased (n/N)” value ([1]; Week 8) was 0/0, the “Discontinuing: Deceased (percent)” value ([1]; Week 8) was “(0.0%)” and the “Discontinuing the study (n/N)” value ([1]; Week 12) was 0/9. The “Discontinuing the study (percent)” value ([1]; Week 12) was “(0.0%)”, the “Discontinuing: Deceased (n/N)” value ([1]; Week 12) was 0/0 and the “Discontinuing: Deceased (percent)” value ([1]; Week 12) was “(0.0%)”. For the same molecule, the “Deceased (n/N)” value ([1]; Week 16) was 0/9, the “Deceased (percent)” value ([1]; Week 16) was “(0.0%)” and the “Change in LDL from baseline to 12 weeks Mean (SD)” value [2] was 9 −1.0 (0.38) mmol/l. The “Change in LDL from baseline to 12 weeks Q1” value [2] was -1.2 mmol/L, the “Change in LDL from baseline to 12 weeks Q2” value [2] was -1.0 mmol/L and the “Change in LDL from baseline to 12 weeks Q3” value [2] was -0.8 mmol/L. For the same molecule, the “Change in LDL from baseline to 12 weeks max” value [2] was -1 mmol/L, the “Change in LDL from baseline to 12 weeks min” value [2] was -2 mmol/L and the “Diastolic Blood Pressure Mean (SD)” value [3, 4] was 9 82.7 (8.43) mmHg. For the same molecule, the “Diastolic Blood Pressure Q1” value [3, 4] was 76.0 mmHg, the “Diastolic Blood Pressure Q2” value [3, 4] was 81.0 mmHg and the “Diastolic Blood Pressure Q3” value [3, 4] was 89.0 mmHg. The “Diastolic Blood Pressure max” value [3, 4] was 96 mmHg, the “Diastolic Blood Pressure min” value [3, 4] was 72 mmHg and the “Systolic Blood Pressure Mean (SD)” value [3, 4] was 9 124.2 (13.17) mmHg. For the same molecule, the “Systolic Blood Pressure Q1” value [3, 4] was 114.7 mmHg, the “Systolic Blood Pressure Q2” value [3, 4] was 123.0 mmHg and the “Systolic Blood Pressure Q3” value [3, 4] was 132.7 mmHg. The “Systolic Blood Pressure max” value [3, 4] was 147 mmHg, the “Systolic Blood Pressure min” value [3, 4] was 107 mmHg and the “Diastolic Blood Pressure Mean (SD)” value ([3]; Week 4) was 9 77.5 (6.98) mmHg. For the same molecule, the “Diastolic Blood Pressure Q1” value ([3]; Week 4) was 74.0 mmHg, the “Diastolic Blood Pressure Q2” value ([3]; Week 4) was 77.7 mmHg and the “Diastolic Blood Pressure Q3” value ([3]; Week 4) was 81.3 mmHg. For the same molecule, the “Diastolic Blood Pressure max” value ([3]; Week 4) was 90 mmHg, the “Diastolic Blood Pressure min” value ([3]; Week 4) was 68 mmHg and the “Systolic Blood Pressure Mean (SD)” value ([3]; Week 4) was 9 122.2 (14.06) mmHg. The “Systolic Blood Pressure Q1” value ([3]; Week 4) was 113.7 mmHg, the “Systolic Blood Pressure Q2” value ([3]; Week 4) was 119.3 mmHg and the “Systolic Blood Pressure Q3” value ([3]; Week 4) was 126.7 mmHg. The “Systolic Blood Pressure max” value ([3]; Week 4) was 146 mmHg, the “Systolic Blood Pressure min” value ([3]; Week 4) was 102 mmHg and the “Diastolic Blood Pressure Mean (SD)” value ([3]; Week 8) was 9 77.1 (6.07) mmHg. For the same molecule, the “Diastolic Blood Pressure Q1” value ([3]; Week 8) was 72.3 mmHg, the “Diastolic Blood Pressure Q2” value ([3]; Week 8) was 78.7 mmHg and the “Diastolic Blood Pressure Q3” value ([3]; Week 8) was 81.7 mmHg. For the same molecule, the “Diastolic Blood Pressure max” value ([3]; Week 8) was 84 mmHg, the “Diastolic Blood Pressure min” value ([3]; Week 8) was 68 mmHg and the “Systolic Blood Pressure Mean (SD)” value ([3]; Week 8) was 9 117.0 (11.50) mmHg. For the same molecule, the “Systolic Blood Pressure Q1” value ([3]; Week 8) was 111.0 mmHg, the “Systolic Blood Pressure Q2” value ([3]; Week 8) was 115.3 mmHg and the “Systolic Blood Pressure Q3” value ([3]; Week 8) was 124.3 mmHg. For the same molecule, the “Systolic Blood Pressure max” value ([3]; Week 8) was 135 mmHg, the “Systolic Blood Pressure min” value ([3]; Week 8) was 95 mmHg and the “Diastolic Blood Pressure Mean (SD)” value ([3]; Week 12 (end of treatment)) was 9 78.4 (10.70) mmHg. The “Diastolic Blood Pressure Q1” value ([3]; Week 12 (end of treatment)) was 78.3 mmHg, the “Diastolic Blood Pressure Q2” value ([3]; Week 12 (end of treatment)) was 81.3 mmHg and the “Diastolic Blood Pressure Q3” value ([3]; Week 12 (end of treatment)) was 85.7 mmHg. The “Diastolic Blood Pressure max” value ([3]; Week 12 (end of treatment)) was 87 mmHg, the “Diastolic Blood Pressure min” value ([3]; Week 12 (end of treatment)) was 54 mmHg and the “Systolic Blood Pressure Mean (SD)” value ([3]; Week 12 (end of treatment)) was 9 117.8 (14.06) mmHg. The “Systolic Blood Pressure Q1” value ([3]; Week 12 (end of treatment)) was 111.0 mmHg, the “Systolic Blood Pressure Q2” value ([3]; Week 12 (end of treatment)) was 120.0 mmHg and the “Systolic Blood Pressure Q3” value ([3]; Week 12 (end of treatment)) was 125.7 mmHg. The “Systolic Blood Pressure max” value ([3]; Week 12 (end of treatment)) was 135 mmHg, the “Systolic Blood Pressure min” value ([3]; Week 12 (end of treatment)) was 88 mmHg and the “Change in DBP from baseline to 12 weeks Mean (SD)” value ([3]; Week 12 v/s Baseline) was 9 −4.3 (8.95) mmHg. The “Change in DBP from baseline to 12 weeks Q1” value ([3]; Week 12 v/s Baseline) was −8.7 mmHg, the “Change in DBP from baseline to 12 weeks Q2” value ([3]; Week 12 v/s Baseline) was −3.7 mmHg and the “Change in DBP from baseline to 12 weeks Q3” value ([3]; Week 12 v/s Baseline) was −0.7 mmHg. The “Change in DBP from baseline to 12 weeks max” value ([3]; Week 12 v/s Baseline) was 9 mmHg, the “Change in DBP from baseline to 12 weeks min” value ([3]; Week 12 v/s Baseline) was −22 mmHg and the “Change in SBP from baseline to 12 weeks Mean (SD)” value ([3]; Week 12 v/s Baseline) was 9 −6.4 (8.24) mmHg. The “Change in SBP from baseline to 12 weeks Q1” value ([3]; Week 12 v/s Baseline) was −12.0 mmHg, the “Change in SBP from baseline to 12 weeks Q2” value ([3]; Week 12 v/s Baseline) was −4.7 mmHg and the “Change in SBP from baseline to 12 weeks Q3” value ([3]; Week 12 v/s Baseline) was 0.3 mmHg. The “Change in SBP from baseline to 12 weeks max” value ([3]; Week 12 v/s Baseline) was 5 mmHg, the “Change in SBP from baseline to 12 weeks min” value ([3]; Week 12 v/s Baseline) was −19 mmHg and the “Diastolic Blood Pressure Mean (SD)” value [3, 5] was 9 80.5 (7.29) mmHg. The “Diastolic Blood Pressure Q1” value [3, 5] was 74.3 mmHg, the “Diastolic Blood Pressure Q2” value [3, 5] was 80.7 mmHg and the “Diastolic Blood Pressure Q3” value [3, 5] was 87.0 mmHg. For the same molecule, the “Diastolic Blood Pressure max” value [3, 5] was 90 mmHg, the “Diastolic Blood Pressure min” value [3, 5] was 71 mmHg and the “Systolic Blood Pressure Mean (SD)” value [3, 5] was 9 118.3 (10.11) mmHg. The “Systolic Blood Pressure Q1” value [3, 5] was 109.7 mmHg, the “Systolic Blood Pressure Q2” value [3, 5] was 116.7 mmHg and the “Systolic Blood Pressure Q3” value [3, 5] was 123.0 mmHg. The “Systolic Blood Pressure max” value [3, 5] was 136 mmHg and the “Systolic Blood Pressure min” value [3, 5] was 107 mmHg.
